According to article PMC7865522, “Analyzing Kinase Similarity in Small Molecule and Protein Structural Space to Explore the Limits of Multi-Target Screening” (Molecules, 2021):

What was measured:
PI3K [1] = biological target: T1, PI3K (Homo sapiens, UniProt P42336); test: DiscoverX KINOMEscan competition binding assay; design: purchased DiscoverX (KINOMEscan service); host or cells: E. coli BL21-derived host (T7 phage) or HEK-293; conditions: compound 10 µM; lower values = higher affinity; below 35% = significant binding
Method: (§1) Ligand binding experiments for the molecules selected from Profiles 1 and 2 towards nine kinases (EGFR, ErbB2, LCK, CDK2, BRAF, MET, p38α, PI3K and VEGFR2) and for molecules selected from Profiles 3 and 4 towards four kinases (EGFR, ErbB2, BRAF and VEGFR2) were carried out by DiscoverX using the supplied protocol as described in the Supplementary Materials. Briefly, ligand affinity was measured by competition with a resin-bound standard ligand and washed-off kinase concentration was determined via qPCR.
(§2) Summarizing, binding of a compound to a kinase was tested in comparison to a control compound (see Table S2). […]
(§3) 1.1. DiscoverX kinase assay
(§4) For most assays, kinase-tagged T7 phage strains were grown in parallel in 24-well blocks in an E.coli host derived from the BL21 strain. E.coli were grown to log-phase and infected with T7 phage from a frozen stock (multiplicity of infection = 0.4) and incubated with shaking at 32°C until lysis (90-150 minutes). The lysates were centrifuged (6,000 x g) and ﬁltered (0.2µm) to remove cell debris.
(§5) The remaining kinases were produced in HEK-293 cells and subsequently tagged with DNA for qPCR detection. Streptavidin-coated magnetic beads were treated with biotinylated small molecule ligands for 30 minutes at room temperature to generate afﬁnity resins for the kinases. The liganded beads were blocked with excess biotin and washed with blocking buffer (SeaBlock [Pierce], 1% BSA, 0.05% Tween 20, 1 mM DTT) to remove unbound ligands and to reduce non-speciﬁc phage binding. Binding reactions were assembled by combining kinases, liganded afﬁnity beads, and test compounds in 1x binding buffer (20% SeaBlock, 0.17x PBS, 0.05% Tween 20, 6 mM DTT). Test compounds were prepared as 40x stocks in 100% DMSO and directly diluted into the assay. All reactions were performed in polypropylene 384-well plates in a ﬁnal volume of 0.02 ml. The assay plates were incubated at room temperature with shaking for 1 hour and the afﬁnity beads were washed with wash buffer (1x PBS, 0.05% Tween 20). The beads were then re-suspended in elution buffer (1x PBS, 0.05% Tween 20, 0.5 µM non-biotinylated afﬁnity ligand) and incubated at room temperature with shaking for 30 minutes. The kinase concentration in the eluates was measured by qPCR. […]
(§6) Table S2. Experimental % control values from the DiscoverX kinase assay. Compounds were tested against the nine kinases EGFR, ErbB2, LCK, CDK2, BRAF, MET, p38α, PI3K and VEGFR2, unless otherwise stated. Binding of kinase and compound were tested at a compound concentration of 10 µM and in comparison to a control compound. Lower values indicate a higher afﬁnity of the compound to the protein and values below 35% indicate signiﬁcant binding according to information of the CRO. […]
(§7) a Compounds were only tested against four kinases (EGFR, ErbB2, BRAF and VEGFR2). b Compound was selected independently from two docking proﬁles and tested separately during

CDK2 = biological target: T2, CDK2 (Homo sapiens, UniProt P24941); test: DiscoverX KINOMEscan competition binding assay; conditions: compound 10 µM; lower values = higher affinity; below 35% = significant binding
T2 construct: purchased DiscoverX (KINOMEscan service); host or cells: E. coli BL21-derived host (T7 phage) or HEK-293
Method: as §1, §2, §3, §4, §5, §6, §7

BRAF [2] = biological target: T3, BRAF (Homo sapiens, UniProt P15056); test: DiscoverX KINOMEscan competition binding assay; conditions: compound 10 µM; lower values = higher affinity; below 35% = significant binding
T3 construct: purchased DiscoverX (KINOMEscan service); host or cells: E. coli BL21-derived host (T7 phage) or HEK-293
Method: as §1, §2, §3, §4, §5, §6, §7

MET = biological target: T4, MET (Homo sapiens, UniProt P08581); test: DiscoverX KINOMEscan competition binding assay; conditions: compound 10 µM; lower values = higher affinity; below 35% = significant binding
T4 construct: purchased DiscoverX (KINOMEscan service); host or cells: E. coli BL21-derived host (T7 phage) or HEK-293
Method: as §1, §2, §3, §4, §5, §6, §7

EGFR [3] = biological target: T5, EGFR (Homo sapiens, UniProt P00533); test: DiscoverX KINOMEscan competition binding assay; conditions: compound 10 µM; lower values = higher affinity; below 35% = significant binding
T5 construct: purchased DiscoverX (KINOMEscan service); host or cells: E. coli BL21-derived host (T7 phage) or HEK-293
Method: as §1, §2, §3, §4, §5, §6, §7

LCK = biological target: T6, LCK (Homo sapiens, UniProt P06239); test: DiscoverX KINOMEscan competition binding assay; conditions: compound 10 µM; lower values = higher affinity; below 35% = significant binding
T6 construct: purchased DiscoverX (KINOMEscan service); host or cells: E. coli BL21-derived host (T7 phage) or HEK-293
Method: as §1, §2, §3, §4, §5, §6, §7

VEGFR2 = biological target: T7, VEGFR2 (Homo sapiens, UniProt P35968); test: DiscoverX KINOMEscan competition binding assay; conditions: compound 10 µM; lower values = higher affinity; below 35% = significant binding
T7 construct: purchased DiscoverX (KINOMEscan service); host or cells: E. coli BL21-derived host (T7 phage) or HEK-293
Method: as §1, §2, §3, §4, §5, §6, §7

p38α = biological target: T8, p38α (Homo sapiens, UniProt Q16539); test: DiscoverX KINOMEscan competition binding assay; conditions: compound 10 µM; lower values = higher affinity; below 35% = significant binding
T8 construct: purchased DiscoverX (KINOMEscan service); host or cells: E. coli BL21-derived host (T7 phage) or HEK-293
Method: as §1, §2, §3, §4, §5, §6, §7

ErbB2 [4] = biological target: T9, ErbB2 (Homo sapiens, UniProt P04626); test: DiscoverX KINOMEscan competition binding assay; conditions: compound 10 µM; lower values = higher affinity; below 35% = significant binding
T9 construct: purchased DiscoverX (KINOMEscan service); host or cells: E. coli BL21-derived host (T7 phage) or HEK-293
Method: as §1, §2, §3, §4, §5, §6, §7

PI3K [5] = biological target: T1, PI3K; test: Eurofins in vitro kinase inhibition assay (HTRF, PIP3 displacement); format: biochemical; design: purchased Eurofins Cerep (contract assay); conditions: compound 20 µM; mean (SD); above 50% significant, 25-50% weak
Method: (§8) Kinase inhibition assays for EGFR, ErbB2, PI3K and BRAF were carried out by Eurofins Cerep following the protocols of Weber et al. (EGFR), Quian et al. (ErbB2), Sinnamon et al. (PI3K) and Kupcho et al. (BRAF). Briefly, except for PI3K, compounds were incubated with the respective kinase, ATP, and a substrate analog, and the effect of each compound on phosphorylation was measured. In the case of PI3K, the displacement of biotinylated PIP3 from a PIP3-binding complex by unlabelled PIP3 (produced from PIP2 by PI3K) was measured by Homogeneous Time Resolved Fluorescence (HTRF).
(§9) Finally, inhibition of the respective kinases is calculated as the percentage inhibition of control activity.
(§10) Table S3. Experimental results from the Euroﬁns assay. Inhibition of four kinases (EGFR, PI3K, ErbB2, BRAF) was measured at compound concentrations of 20 µM. Inhibition was calculated as % inhibition of control activity. According to CRO, values above 50% inhibition represent signiﬁcant inhibition, values above 25% weak inhibition effect and values below 25% as well as negative values are usually not signiﬁcant. Results are reported in mean (SD) format. […]
(§11) a Compound interfered with assay readout.

BRAF [6] = biological target: T3, BRAF; test: Eurofins in vitro kinase inhibition assay; format: biochemical; conditions: compound 20 µM; mean (SD); above 50% significant, 25-50% weak
Method: as §8, §9, §10, §11

EGFR [7] = biological target: T5, EGFR; test: Eurofins in vitro kinase inhibition assay; format: biochemical; conditions: compound 20 µM; mean (SD); above 50% significant, 25-50% weak
Method: as §8, §9, §10, §11

ErbB2 [8] = biological target: T9, ErbB2; test: Eurofins in vitro kinase inhibition assay; format: biochemical; conditions: compound 20 µM; mean (SD); above 50% significant, 25-50% weak
Method: as §8, §9, §10, §11

T7 sequence (P35968 20-1356): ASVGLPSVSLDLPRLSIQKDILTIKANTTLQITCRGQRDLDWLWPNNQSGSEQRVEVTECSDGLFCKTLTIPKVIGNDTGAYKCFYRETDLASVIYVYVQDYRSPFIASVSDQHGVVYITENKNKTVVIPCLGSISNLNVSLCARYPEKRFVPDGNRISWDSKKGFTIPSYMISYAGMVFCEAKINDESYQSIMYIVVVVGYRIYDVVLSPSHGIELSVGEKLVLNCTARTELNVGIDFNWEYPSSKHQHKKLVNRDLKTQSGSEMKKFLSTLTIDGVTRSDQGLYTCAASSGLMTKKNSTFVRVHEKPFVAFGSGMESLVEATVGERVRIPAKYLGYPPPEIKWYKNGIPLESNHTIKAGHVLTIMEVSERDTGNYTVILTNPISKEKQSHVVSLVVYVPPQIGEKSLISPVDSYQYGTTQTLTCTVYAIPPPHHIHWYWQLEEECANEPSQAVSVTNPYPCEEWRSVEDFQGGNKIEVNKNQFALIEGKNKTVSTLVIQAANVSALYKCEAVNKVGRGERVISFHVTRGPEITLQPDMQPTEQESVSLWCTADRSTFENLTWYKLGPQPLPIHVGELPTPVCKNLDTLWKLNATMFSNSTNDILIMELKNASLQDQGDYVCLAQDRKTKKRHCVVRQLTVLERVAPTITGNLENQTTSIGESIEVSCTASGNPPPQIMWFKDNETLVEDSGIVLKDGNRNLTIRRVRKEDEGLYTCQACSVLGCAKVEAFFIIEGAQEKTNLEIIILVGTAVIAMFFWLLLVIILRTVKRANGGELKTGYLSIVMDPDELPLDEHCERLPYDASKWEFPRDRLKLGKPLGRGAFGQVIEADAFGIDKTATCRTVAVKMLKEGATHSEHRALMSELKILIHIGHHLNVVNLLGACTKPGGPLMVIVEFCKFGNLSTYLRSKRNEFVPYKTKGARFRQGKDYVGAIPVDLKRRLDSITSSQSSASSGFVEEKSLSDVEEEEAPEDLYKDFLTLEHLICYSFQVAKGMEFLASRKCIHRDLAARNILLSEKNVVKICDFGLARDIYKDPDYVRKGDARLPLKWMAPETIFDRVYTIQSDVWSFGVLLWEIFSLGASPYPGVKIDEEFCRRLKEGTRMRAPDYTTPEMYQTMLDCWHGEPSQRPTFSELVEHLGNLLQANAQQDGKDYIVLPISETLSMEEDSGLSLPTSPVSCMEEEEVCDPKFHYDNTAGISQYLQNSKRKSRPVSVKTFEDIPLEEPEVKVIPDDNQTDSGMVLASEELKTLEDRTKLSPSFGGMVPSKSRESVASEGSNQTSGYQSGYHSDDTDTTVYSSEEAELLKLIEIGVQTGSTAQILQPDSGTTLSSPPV
T4 sequence (P08581 25-1390): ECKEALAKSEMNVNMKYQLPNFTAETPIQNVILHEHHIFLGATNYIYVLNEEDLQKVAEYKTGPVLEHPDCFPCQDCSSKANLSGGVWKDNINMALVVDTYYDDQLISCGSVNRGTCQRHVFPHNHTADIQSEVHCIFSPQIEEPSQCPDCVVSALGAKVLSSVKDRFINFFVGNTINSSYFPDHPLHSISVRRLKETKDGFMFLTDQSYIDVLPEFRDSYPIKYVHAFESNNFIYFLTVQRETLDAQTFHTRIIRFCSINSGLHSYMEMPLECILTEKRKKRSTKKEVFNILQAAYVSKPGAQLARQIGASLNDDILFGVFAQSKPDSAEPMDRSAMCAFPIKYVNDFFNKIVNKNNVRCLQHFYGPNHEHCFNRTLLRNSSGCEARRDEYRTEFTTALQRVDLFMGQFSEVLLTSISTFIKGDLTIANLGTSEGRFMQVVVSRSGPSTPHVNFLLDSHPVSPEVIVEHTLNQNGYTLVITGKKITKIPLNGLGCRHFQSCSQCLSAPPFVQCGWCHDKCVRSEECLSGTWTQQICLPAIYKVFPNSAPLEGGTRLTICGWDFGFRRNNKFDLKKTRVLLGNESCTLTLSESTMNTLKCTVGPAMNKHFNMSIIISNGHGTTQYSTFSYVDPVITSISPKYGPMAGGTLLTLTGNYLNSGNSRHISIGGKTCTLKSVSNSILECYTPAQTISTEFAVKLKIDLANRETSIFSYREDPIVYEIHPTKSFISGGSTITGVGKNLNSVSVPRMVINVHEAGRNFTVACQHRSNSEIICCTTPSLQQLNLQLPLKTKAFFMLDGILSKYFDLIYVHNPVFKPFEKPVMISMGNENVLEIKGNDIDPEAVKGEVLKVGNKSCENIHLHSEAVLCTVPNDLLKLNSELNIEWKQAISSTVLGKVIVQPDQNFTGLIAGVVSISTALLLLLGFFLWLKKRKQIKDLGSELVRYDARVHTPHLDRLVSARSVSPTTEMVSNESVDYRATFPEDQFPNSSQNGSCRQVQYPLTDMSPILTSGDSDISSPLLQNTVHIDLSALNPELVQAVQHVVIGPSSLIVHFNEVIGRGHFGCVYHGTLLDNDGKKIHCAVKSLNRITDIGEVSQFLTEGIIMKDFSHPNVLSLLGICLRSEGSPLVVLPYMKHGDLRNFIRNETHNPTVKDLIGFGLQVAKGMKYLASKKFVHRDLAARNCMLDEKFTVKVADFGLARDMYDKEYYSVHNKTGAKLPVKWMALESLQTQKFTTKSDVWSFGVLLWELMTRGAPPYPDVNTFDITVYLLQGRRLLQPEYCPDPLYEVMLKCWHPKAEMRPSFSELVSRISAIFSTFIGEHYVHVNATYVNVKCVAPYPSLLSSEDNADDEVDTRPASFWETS
T9 sequence (P04626 23-1255): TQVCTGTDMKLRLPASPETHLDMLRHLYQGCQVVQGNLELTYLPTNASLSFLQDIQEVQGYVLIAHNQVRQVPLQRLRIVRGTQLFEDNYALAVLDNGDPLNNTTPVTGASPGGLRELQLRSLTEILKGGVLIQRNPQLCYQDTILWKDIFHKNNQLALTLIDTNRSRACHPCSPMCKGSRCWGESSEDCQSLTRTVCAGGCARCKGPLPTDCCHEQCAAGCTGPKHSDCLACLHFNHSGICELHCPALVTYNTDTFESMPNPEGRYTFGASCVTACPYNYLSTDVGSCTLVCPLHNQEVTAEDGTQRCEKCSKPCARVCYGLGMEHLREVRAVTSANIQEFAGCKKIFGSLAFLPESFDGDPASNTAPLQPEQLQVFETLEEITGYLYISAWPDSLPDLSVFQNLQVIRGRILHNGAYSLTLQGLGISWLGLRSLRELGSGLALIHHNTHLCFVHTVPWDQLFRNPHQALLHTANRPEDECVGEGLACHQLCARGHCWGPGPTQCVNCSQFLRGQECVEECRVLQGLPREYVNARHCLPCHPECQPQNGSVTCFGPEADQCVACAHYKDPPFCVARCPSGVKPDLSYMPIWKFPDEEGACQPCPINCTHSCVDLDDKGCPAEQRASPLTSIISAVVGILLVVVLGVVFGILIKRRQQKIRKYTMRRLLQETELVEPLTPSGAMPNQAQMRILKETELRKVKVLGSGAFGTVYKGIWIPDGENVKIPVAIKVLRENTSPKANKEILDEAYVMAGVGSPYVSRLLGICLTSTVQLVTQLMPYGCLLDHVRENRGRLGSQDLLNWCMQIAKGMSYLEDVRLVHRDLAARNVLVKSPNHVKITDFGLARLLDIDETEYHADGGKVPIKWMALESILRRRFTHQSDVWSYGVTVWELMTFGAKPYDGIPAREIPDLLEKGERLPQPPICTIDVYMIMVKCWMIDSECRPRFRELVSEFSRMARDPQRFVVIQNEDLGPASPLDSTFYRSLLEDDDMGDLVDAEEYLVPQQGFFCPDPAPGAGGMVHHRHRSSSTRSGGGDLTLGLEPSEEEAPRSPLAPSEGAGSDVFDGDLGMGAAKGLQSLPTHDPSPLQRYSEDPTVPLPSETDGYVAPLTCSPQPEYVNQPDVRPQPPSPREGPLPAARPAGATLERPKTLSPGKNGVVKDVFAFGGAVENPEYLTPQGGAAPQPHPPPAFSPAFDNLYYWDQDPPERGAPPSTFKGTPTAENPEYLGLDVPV
T5 sequence (P00533 25-1210): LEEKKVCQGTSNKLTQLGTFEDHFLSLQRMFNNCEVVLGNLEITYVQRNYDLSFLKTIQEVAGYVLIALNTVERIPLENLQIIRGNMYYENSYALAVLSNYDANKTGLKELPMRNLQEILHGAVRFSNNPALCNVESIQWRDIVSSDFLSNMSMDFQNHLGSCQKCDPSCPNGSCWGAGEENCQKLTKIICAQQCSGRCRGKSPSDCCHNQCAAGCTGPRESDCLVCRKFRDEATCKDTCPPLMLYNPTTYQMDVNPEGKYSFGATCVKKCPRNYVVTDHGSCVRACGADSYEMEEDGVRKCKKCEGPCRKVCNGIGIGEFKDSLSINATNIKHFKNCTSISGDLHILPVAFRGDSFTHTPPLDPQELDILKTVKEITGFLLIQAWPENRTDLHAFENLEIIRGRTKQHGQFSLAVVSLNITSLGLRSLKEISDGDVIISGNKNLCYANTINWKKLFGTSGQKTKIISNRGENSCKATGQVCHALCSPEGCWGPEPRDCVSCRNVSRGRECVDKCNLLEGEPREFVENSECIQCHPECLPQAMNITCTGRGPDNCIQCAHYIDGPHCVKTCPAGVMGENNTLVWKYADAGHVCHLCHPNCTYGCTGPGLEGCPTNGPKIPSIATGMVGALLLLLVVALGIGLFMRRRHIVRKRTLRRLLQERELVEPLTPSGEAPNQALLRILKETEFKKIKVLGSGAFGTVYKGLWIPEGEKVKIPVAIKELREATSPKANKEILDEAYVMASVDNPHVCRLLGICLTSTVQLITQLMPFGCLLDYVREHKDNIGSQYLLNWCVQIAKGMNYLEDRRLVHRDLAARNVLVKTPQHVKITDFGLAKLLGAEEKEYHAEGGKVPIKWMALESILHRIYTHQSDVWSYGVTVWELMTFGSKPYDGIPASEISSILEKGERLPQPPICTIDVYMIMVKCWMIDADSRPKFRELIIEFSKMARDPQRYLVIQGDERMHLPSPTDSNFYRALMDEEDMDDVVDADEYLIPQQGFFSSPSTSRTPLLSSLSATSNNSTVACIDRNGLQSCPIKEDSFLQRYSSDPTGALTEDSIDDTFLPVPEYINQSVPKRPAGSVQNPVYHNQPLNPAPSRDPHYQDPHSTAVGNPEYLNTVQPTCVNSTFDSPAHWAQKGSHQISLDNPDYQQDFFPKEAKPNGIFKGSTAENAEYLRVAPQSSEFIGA

| % control, PI3K (DiscoverX) (PI3K [1]) [% control] | % control, CDK2 (DiscoverX) (CDK2) [% control] | % control, BRAF (DiscoverX) (BRAF [2]) [% control] | % control, MET (DiscoverX) (MET) [% control] | % control, EGFR (DiscoverX) (EGFR [3]) [% control] | % control, LCK (DiscoverX) (LCK) [% control] | % control, VEGFR2 (DiscoverX) (VEGFR2) [% control] | % control, p38α (DiscoverX) (p38α) [% control] | % control, ErbB2 (DiscoverX) (ErbB2 [4]) [% control] | % inhibition of control activity, PI3K (Eurofins) (PI3K [5]) | % inhibition of control activity, BRAF (Eurofins) (BRAF [6]) | % inhibition of control activity, EGFR (Eurofins) (EGFR [7]) | % inhibition of control activity, ErbB2 (Eurofins) (ErbB2 [8]) | SMILES |
| --- | --- | --- | --- | --- | --- | --- | --- | --- | --- | --- | --- | --- | --- |
| 100 | 100 | 100 | 78 | 96 | 100 | 99 | 100 | 87 | -1.1 (2.1) % inhibition | -12.4 (1.8) % inhibition | 19.8 (5.0) % inhibition | 9.8 (21.9) % inhibition | Cc1cc(=O)n2nc(N(C)CC(=O)NCc3cccs3)sc2n1 [DS72975] |
| 87 | 100 | 100 | 97 | 100 | 100 | 100 | 99 | 100 | 0.2 (3.6) % inhibition | -22.9 (4.9) % inhibition | 7.8 (3.3) % inhibition | 5.8 (0.2) % inhibition | CCc1nnc(NC(=O)c2nn(-c3ccc(C)cc3)ccc2=O)s1 [DS59212] |
| 100 | 100 | 100 | 100 | 97 | 89 | 97 | 99 | 100 | -3.7 (0.3) % inhibition | -21.8 (9.5) % inhibition | 15.3 (7.7) % inhibition | 0.7 (1.1) % inhibition | COc1ccc(-c2nn(C(C)=O)c3c2C(=O)CC(C)(C)C3)cc1 [DS18339] |
| 89 | 100 | 83 | 100 | 92 | 100 | 100 | 93 | 90 | 3.6 (2.3) % inhibition | -18.5 (1.8) % inhibition | 12.6 (1.9) % inhibition | -1.4 (0.8) % inhibition | CCOCCCNC(=O)c1nc2c3c4c(sc3ncn2n1)CC[C@@H](C)C4 [DS82066] |
| 100 | 100 | 99 | 90 | 100 | 100 | 98 | 100 | 100 | 1.8 (4.4) % inhibition | -13.7 (10.5) % inhibition | 2.4 (14.7) % inhibition | -3.4 (1.0) % inhibition | Cc1ccc(-n2cnnn2)cc1NC(=O)NC1CC1 [DS44245] |

The next lines start with the compound.

| SMILES | % control, PI3K (DiscoverX) (PI3K [1]) [% control] | % control, CDK2 (DiscoverX) (CDK2) [% control] | % control, BRAF (DiscoverX) (BRAF [2]) [% control] | % control, MET (DiscoverX) (MET) [% control] | % control, EGFR (DiscoverX) (EGFR [3]) [% control] | % control, LCK (DiscoverX) (LCK) [% control] | % control, VEGFR2 (DiscoverX) (VEGFR2) [% control] | % control, p38α (DiscoverX) (p38α) [% control] | % control, ErbB2 (DiscoverX) (ErbB2 [4]) [% control] | % inhibition of control activity, PI3K (Eurofins) (PI3K [5]) | % inhibition of control activity, BRAF (Eurofins) (BRAF [6]) | % inhibition of control activity, EGFR (Eurofins) (EGFR [7]) | % inhibition of control activity, ErbB2 (Eurofins) (ErbB2 [8]) |
| --- | --- | --- | --- | --- | --- | --- | --- | --- | --- | --- | --- | --- | --- |
| CC(=O)c1cc(CC(=O)N(C)C[C@H]2CCCCO2)cs1 [DS84326] | 100 | 100 | 100 | 95 | 100 | 100 | 100 | 90 | 97 | 0.7 (0.8) % inhibition | -8.2 (13.6) % inhibition | 23.4 (0.6) % inhibition | 0.2 (2.8) % inhibition |
| O=C(Oc1ccc2c3c(c(=O)oc2c1)CCC3)c1cccc(Cl)c1 [DS76514] | 100 | 100 | 89 | 90 | 87 | 100 | 100 | 97 | 96 | 17.4 (0.4) % inhibition | -33.6 (18.1) % inhibition | 3.2 (10.7) % inhibition | -0.6 (1.0) % inhibition |
| O=C(Cn1cnc2c(cnn2CCO)c1=O)NCc1ccccc1 [DS05168] | 100 | 99 | 98 | 94 | 100 | 95 | 100 | 100 | 100 | -1 (1.6) % inhibition | -12.4 (10.9) % inhibition | 11.1 (1.8) % inhibition | 2.8 (1.6) % inhibition |
